Measured values reported in ChEMBL document CHEMBL3885881, “DrugMatrix”.

Species on record: Rattus norvegicus
Test: DrugMatrix - Regimen: Daily Repeat
Type: toxicity, organism-based, Sprague-Dawley
Design: regimen Daily Repeat, gender Male, age 6-8 weeks
Details: in vivo, po, […], route oral GAVAGE; for BASOPHIL / EOSINOPHIL / ERYTHROCYTE COUNT / HEMATOCRIT / HEMOGLOBIN / LEUKOCYTE COUNT / LYMPHOCYTE / MEAN CORPUSCULAR HEMOGLOBIN / MEAN CORPUSCULAR HEMOGLOBIN CONCENTRATION / MEAN CORPUSCULAR VOLUME / MONOCYTE / NEUTROPHIL / PLATELET COUNT / ABSOLUTE BASOPHIL / ABSOLUTE EOSINOPHIL / ABSOLUTE LYMPHOCYTE / ABSOLUTE MONOCYTE / ABSOLUTE SEGMENTED NEUTROPHIL / NUCLEATED RED BLOOD CELLS: tissue Blood; for ALANINE AMINOTRANSFERASE / ALBUMIN / ALKALINE PHOSPHATASE / ASPARTATE AMINOTRANSFERASE / BLOOD UREA NITROGEN / CHLORIDE / CHOLESTEROL / CREATINE PHOSPHOKINASE / CREATININE / GLUCOSE / PHOSPHORUS / POTASSIUM / SODIUM / TOTAL BILIRUBIN / TOTAL PROTEIN / CARBON DIOXIDE / LACTATE DEHYDROGENASE / LIPASE / URIC ACID: tissue Plasma
[1] = 11 mg/kg, dose level High, time 28 day
[2] = 72 h, dose 2.5 mg/Kg, dose level Low, time 3 day
[3] = 120 h, dose 2.5 mg/Kg, dose level Low, time 5 day

Compound: O=[N+]([O-])c1cc([As](=O)(O)O)ccc1O [ROXARSONE]
- BASOPHIL [1]: 0.47%
- EOSINOPHIL [1]: 0.51%
- ERYTHROCYTE COUNT [1]: 8.5 x10E6/uL
- HEMATOCRIT [1]: 51.09%
- HEMOGLOBIN [1]: 16.79 G/DL
- LEUKOCYTE COUNT [1]: 12.9 x10E3/uL
- LYMPHOCYTE [1]: 81.69%
- MEAN CORPUSCULAR HEMOGLOBIN [1]: 19.74 pg
- MEAN CORPUSCULAR HEMOGLOBIN CONCENTRATION [1]: 32.83 G/DL
- MEAN CORPUSCULAR VOLUME [1]: 60.14 fL
- MONOCYTE [1]: 1.78%
- NEUTROPHIL [1]: 14.18%
- PLATELET COUNT [1]: 1300.33 x10E3/uL
- ALANINE AMINOTRANSFERASE [1]: 30.56 u/L
- ALBUMIN [1]: 3.98 G/DL
- ALKALINE PHOSPHATASE [1]: 205 u/L
- ASPARTATE AMINOTRANSFERASE [1]: 60.78 u/L
- BLOOD UREA NITROGEN [1]: 11.78 mg/dL
- CHLORIDE [1]: 107.33 MEQ/L
- CHOLESTEROL [1]: 57.22 mg/dL
- CREATINE PHOSPHOKINASE [1]: 179.11 u/L
- CREATININE [1]: 0.44 mg/dL
- GLUCOSE [1]: 136.78 mg/dL
- PHOSPHORUS [1]: 11.58 mg/dL
- POTASSIUM [1]: 6.69 MEQ/L
- SODIUM [1]: 152.22 MEQ/L
- TOTAL BILIRUBIN [1]: 0.23 mg/dL
- TOTAL PROTEIN [1]: 6.68 G/DL
- ABSOLUTE BASOPHIL [2]: 0 CELLS/uL
- ABSOLUTE EOSINOPHIL [2]: 0 CELLS/uL
- ABSOLUTE LYMPHOCYTE [2]: 9950.67 CELLS/uL
- ABSOLUTE MONOCYTE [2]: 307.67 CELLS/uL
- ABSOLUTE SEGMENTED NEUTROPHIL [2]: 1408.33 CELLS/uL
- BASOPHIL [2]: 0%
- EOSINOPHIL [2]: 0%
- ERYTHROCYTE COUNT [2]: 5.09 x10E6/uL
- HEMATOCRIT [2]: 33.27%
- HEMOGLOBIN [2]: 13.17 G/DL
- LEUKOCYTE COUNT [2]: 11.67 x10E3/uL
- LYMPHOCYTE [2]: 85.33%
- MEAN CORPUSCULAR HEMOGLOBIN [2]: 25.9 pg
- MEAN CORPUSCULAR HEMOGLOBIN CONCENTRATION [2]: 39.6 G/DL
- MEAN CORPUSCULAR VOLUME [2]: 65.4 fL
- MONOCYTE [2]: 2.67%
- NEUTROPHIL [2]: 12%
- NUCLEATED RED BLOOD CELLS [2]: 0 /100WBC
- PLATELET COUNT [2]: 1052.67 x10E3/uL
- ALANINE AMINOTRANSFERASE [2]: 79.33 u/L
- ALBUMIN [2]: 4.07 G/DL
- ALKALINE PHOSPHATASE [2]: 426.33 u/L
- ASPARTATE AMINOTRANSFERASE [2]: 104 u/L
- BLOOD UREA NITROGEN [2]: 11 mg/dL
- CARBON DIOXIDE [2]: 22 mmol/L
- CHLORIDE [2]: 103.67 MEQ/L
- CHOLESTEROL [2]: 66.33 mg/dL
- CREATINE PHOSPHOKINASE [2]: 289.33 u/L
- CREATININE [2]: 0.18 mg/dL
- GLUCOSE [2]: 163.33 mg/dL
- LACTATE DEHYDROGENASE [2]: 290.33 u/L
- LIPASE [2]: 12.33 u/L
- PHOSPHORUS [2]: 11 mg/dL
- POTASSIUM [2]: 6.16 MEQ/L
- SODIUM [2]: 142.77 MEQ/L
- TOTAL BILIRUBIN [2]: 0.2 mg/dL
- TOTAL PROTEIN [2]: 5.47 G/DL
- URIC ACID [2]: 1.57 mg/dL
- ABSOLUTE BASOPHIL [3]: 0 CELLS/uL
- ABSOLUTE EOSINOPHIL [3]: 60.33 CELLS/uL
- ABSOLUTE LYMPHOCYTE [3]: 15548.33 CELLS/uL
- ABSOLUTE MONOCYTE [3]: 0 CELLS/uL
- ABSOLUTE SEGMENTED NEUTROPHIL [3]: 2058 CELLS/uL
- BASOPHIL [3]: 0%
- EOSINOPHIL [3]: 0.33%
- ERYTHROCYTE COUNT [3]: 5.56 x10E6/uL
- HEMATOCRIT [3]: 35.6%
- HEMOGLOBIN [3]: 14.43 G/DL
- LEUKOCYTE COUNT [3]: 17.67 x10E3/uL
- LYMPHOCYTE [3]: 88%
- MEAN CORPUSCULAR HEMOGLOBIN [3]: 26 pg
- MEAN CORPUSCULAR HEMOGLOBIN CONCENTRATION [3]: 40.53 G/DL
- MEAN CORPUSCULAR VOLUME [3]: 64.1 fL
- MONOCYTE [3]: 0%
- NEUTROPHIL [3]: 11.67%
- NUCLEATED RED BLOOD CELLS [3]: 0.33 /100WBC
- PLATELET COUNT [3]: 1233.67 x10E3/uL
- ALANINE AMINOTRANSFERASE [3]: 63.33 u/L
- ALBUMIN [3]: 4.23 G/DL
- ALKALINE PHOSPHATASE [3]: 389.33 u/L
- ASPARTATE AMINOTRANSFERASE [3]: 94 u/L
- BLOOD UREA NITROGEN [3]: 13 mg/dL
- CARBON DIOXIDE [3]: 32.33 mmol/L
- CHLORIDE [3]: 100.67 MEQ/L
- CHOLESTEROL [3]: 60.67 mg/dL
- CREATINE PHOSPHOKINASE [3]: 298.67 u/L
- CREATININE [3]: 0.18 mg/dL
- GLUCOSE [3]: 151 mg/dL
- LACTATE DEHYDROGENASE [3]: 370 u/L
- LIPASE [3]: 11.67 u/L
- PHOSPHORUS [3]: 10.73 mg/dL
- POTASSIUM [3]: 6.25 MEQ/L
- SODIUM [3]: 142.83 MEQ/L
- TOTAL BILIRUBIN [3]: 0.2 mg/dL
- TOTAL PROTEIN [3]: 6.03 G/DL
- URIC ACID [3]: 1.77 mg/dL
